Where two headings read alike, the source gives them in different places.
Assays:
[1] = target: T1, RORγ ligand binding domain (LBD) (Homo sapiens, UniProt P51449); assay: TR-FRET Activity Assay (ligand sensing, RORγ-LBD / coactivator peptide interaction, LANCE); format: biochemical
T1 construct: made in house; host or cells: E. coli BL-21 (BL3), vector pDEST15
T1 sequence (P51449 269-508 limits assumed): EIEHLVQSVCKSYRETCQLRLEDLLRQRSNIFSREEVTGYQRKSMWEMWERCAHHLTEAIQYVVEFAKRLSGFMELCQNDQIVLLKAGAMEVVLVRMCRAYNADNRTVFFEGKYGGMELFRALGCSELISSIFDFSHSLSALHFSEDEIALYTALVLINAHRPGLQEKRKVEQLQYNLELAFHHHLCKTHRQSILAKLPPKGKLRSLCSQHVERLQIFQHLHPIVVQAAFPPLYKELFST

RORγ = target: T2, RORγ (UniProt P51449); assay: RORγ Gal4 Reporter Gene Assay in 293T cells (firefly and renilla luciferase); format: cell-based, human
T2 sequence (P51449 1-518): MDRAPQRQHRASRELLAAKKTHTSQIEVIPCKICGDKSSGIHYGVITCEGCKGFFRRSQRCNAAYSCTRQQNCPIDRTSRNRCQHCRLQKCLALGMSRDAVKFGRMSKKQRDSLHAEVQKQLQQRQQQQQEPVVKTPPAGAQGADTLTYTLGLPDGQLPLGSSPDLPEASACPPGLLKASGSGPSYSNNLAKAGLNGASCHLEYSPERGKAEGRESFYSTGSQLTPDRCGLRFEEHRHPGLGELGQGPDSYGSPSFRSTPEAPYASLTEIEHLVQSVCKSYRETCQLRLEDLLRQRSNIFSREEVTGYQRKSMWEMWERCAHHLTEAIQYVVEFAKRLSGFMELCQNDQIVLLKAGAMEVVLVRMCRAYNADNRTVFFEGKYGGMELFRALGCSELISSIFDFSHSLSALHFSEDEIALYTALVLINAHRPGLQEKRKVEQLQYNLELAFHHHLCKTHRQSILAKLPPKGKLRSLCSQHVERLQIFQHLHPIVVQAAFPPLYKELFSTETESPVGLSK

[2] = first value of the cell FRET/FF/REN, TR-FRET activity assay, read-out: pIC50 (FRET) (converted)
[3] = second value of the cell, Gal4 reporter gene assay in 293T cells, firefly luciferase
[4] = third value of the cell, Gal4 reporter gene assay in 293T cells, renilla normalised luciferase

SMILES | IC50 [1, 2] [nM] | pIC50 (FF) (RORγ; [3]) | pIC50 (REN) (RORγ; [4]) | IC50 [1] [nM] | pIC50 (FF) (RORγ) | pIC50 (REN) (RORγ)
CCn1cc(-c2ccc(-c3cc(C(=O)NC4CCOCC4)c(C)n3CC3CCCCC3)cc2C(C)(C)C)cn1 [26/3] | 794 | 6.6 | 6.8 | – | – | –
COC(C)(C)c1cc(-c2c(Cl)c(C(=O)N[C@H]3C[C@H](C(=O)O)C3)c(C)n2CC2CCCCC2)cc(C2(C)CC2)c1 [29/2] | 2510 | 7.3 | 7.1 | – | – | –
Cc1c(C(=O)NC2COC2)cc(-c2cc(C(C)(C)C)cc(C(C)(C)C)c2)n1C(C)C1CCCCC1 (stereo not drawn) [Example 1, 1-(1-Cyclohexylethyl)-5-(3,5-di-tert-butylphenyl)-2-methyl-N-(oxetan-3-yl)-1H-pyrrole-3-carboxamide] | 316 | 6.8 | 6.9 | – | – | –
Cc1c(C(=O)NC2C[S+]([O-])C2)cc(-c2cc(C(C)(C)C)cc(C(C)(C)C)c2)n1CC1CCCCC1 (stereo not drawn) [Example 2, 1-(Cyclohexylmethyl)-5-(3,5-di-tert-butylphenyl)-2-methyl-N-(1-oxidothietan-3-yl)-1H-pyrrole-3-carboxamide] | 251 | 7.0 | 7.0 | – | – | –
Cc1c(C(=O)NC2CS(=O)(=O)C2)cc(-c2cc(C(C)(C)C)cc(C(C)(C)C)c2)n1CC1CCCCC1 [Example 3, 1-(Cyclohexylmethyl)-5-(3,5-di-tert-butylphenyl)-N-(1,1-dioxidothietan-3-yl)-2-methyl-1H-pyrrole-3-carboxamide] | – | – | – | 251 | 6.6/7.4/7.4 | 6.6/7.4/7.4
CC(=O)N1CC(NC(=O)c2cc(-c3cc(C(C)(C)C)cc(C(C)(C)C)c3)n(CC3CCCCC3)c2C)C1 [Example 5, N-(1-Acetylazetidin-3-yl)-1-(cyclohexylmethyl)-5-(3,5-di-tert-butylphenyl)-2-methyl-1H-pyrrole-3-carboxamide] | 501 | 7.0 | 7.2 | – | – | –
Cc1c(C(=O)NC2COC2)cc(-c2cc(C(=O)NC(C)(C)C)nc(C(C)(C)C)c2)n1CC1CCCCC1 [Example 6, N,6-Di-tert-butyl-4-(1-(cyclohexylmethyl)-5-methyl-4-(oxetan-3-ylcarbamoyl)-1H-pyrrol-2-yl)picolinamide] | – | – | – | 631 | 6.2/6.3/6.4 | 6.2/6.3/6.4
Cc1c(C(=O)NCC2(C)COC2)cc(-c2cc(S(=O)(=O)N3CCCCC3)c3ccccn23)n1CC1CCCCC1 [Example 8, 1-(Cyclohexylmethyl)-2-methyl-N-((3-methyloxetan-3-yl)methyl)-5-(1-(piperidin-1-ylsulfonyl)indolizin-3-yl)-1H-pyrrole-3-carboxamide] | 3980 | 7.2 | 7.2 | – | – | –
Cc1c(C(=O)NC2COC2)cc(-c2cc(C(=O)N3CCCCC3)c3ccccn23)n1CC1CCCCC1 [Example 10/1] | 15800 | 6.7 | 6.6 | – | – | –
Cc1c(C(=O)NC2COC2)cc(-c2cc(C(=O)NC(C)(C)C)cc(C(F)(F)F)c2)n1CC1CCCCC1 [Example 15, 5-(3-(tert-Butylcarbamoyl)-5-(trifluoromethyl)phenyl)-1-(cyclohexylmethyl)-2-methyl-N-(oxetan-3-yl)-1H-pyrrole-3-carboxamide] | – | – | – | 501 | 6.3/6.9/6.9 | 6.3/6.9/6.9
Cc1c(C(=O)NC2CCOCC2)cc(-c2ccc(S(N)(=O)=O)c(C(F)(F)F)c2)n1CC1CCCCC1 [Example 19, 1-(Cyclohexylmethyl)-2-methyl-5-(4-sulfamoyl-3-(trifluoromethyl)phenyl)-N-(tetrahydro-2H-pyran-4-yl)-1H-pyrrole-3-carboxamide] | 12600 | 6.6 | 6.4 | – | – | –
CC(C)(C)NS(=O)(=O)c1ccc(-c2c(Cl)c(C(=O)NC3CCOCC3)c(Cl)n2CC2CCCCC2)c2ccccc12 [Example 23, 5-(4-(N-(tert-Butyl)sulfamoyl)naphthalen-1-yl)-2,4-dichloro-1-(cyclohexylmethyl)-N-(tetrahydro-2H-pyran-4-yl)-1H-pyrrole-3-carboxamide] | – | – | – | 200 | 6.7/8.5/8.5 | 6.7/8.5/8.5
Cc1c(C(=O)NC2CCOCC2)cc(-c2ccc(C(NC(C)(C)C)C(F)(F)F)c(C(F)(F)F)c2)n1CC1CCCCC1 (stereo not drawn) [Example 25] | 1580 | 6.3 | 6.2 | – | – | –
Cc1c(C(=O)NC2CCOCC2)cc(-c2ccc(-c3ccnn3C(C)C)c(C(C)(C)C)c2)n1CC1CCCCC1 [Example 26, 5-(3-(tert-Butyl)-4-(1-isopropyl-1H-pyrazol-5-yl)phenyl)-1-(cyclohexylmethyl)-2-methyl-N-(tetrahydro-2H-pyran-4-yl)-1H-pyrrole-3-carboxamide] | 200 | 7.5 | 7.6 | – | – | –
Cc1c(C(=O)NC2CCOCC2)cc(-c2ccc(-c3ccnn3C(C)C)c(C(C)(C)O)c2)n1CC1CCCCC1 [Example 27, 1-(Cyclohexylmethyl)-5-(3-(2-hydroxypropan-2-yl)-4-(1-isopropyl-1H-pyrazol-5-yl)phenyl)-2-methyl-N-(tetrahydro-2H-pyran-4-yl)-1H-pyrrole-3-carboxamide] | 2000 | 6.4 | 6.5 | – | – | –

Now from value to compound, other results behind:

IC50 [1, 2] [nM] | pIC50 (FF) (RORγ; [3]) | pIC50 (REN) (RORγ; [4]) | SMILES | IC50 [1] [nM] | pIC50 (FF) (RORγ) | pIC50 (REN) (RORγ)
3980 | 6.6 | 6.8 | Cc1c(C(=O)NC2CCOCC2)cc(-c2ccc(-c3cnc(NC(C)C)nc3)c(C(C)(C)C)c2)n1CC1CCCCC1 [26/4] | – | – | –
316 | 7.9 | 8.0 | Cc1c(C(=O)N[C@H]2C[C@H](C(=O)O)C2)cc(-c2ccc(-c3ccnn3C(C)C)c(C(C)(C)C)c2)n1CC1CCCCC1 [26/5] | – | – | –
398 | 7.7 | 7.9 | Cc1c(C(=O)NCCC(C)(C)C(=O)O)cc(-c2ccc(-c3ccnn3C(C)C)c(C(C)(C)C)c2)n1CC1CCCCC1 [26/6] | – | – | –
3160 | 6.8 | 6.8 | Cc1c(C(=O)N[C@H]2C[C@H](C(=O)O)C2)c(Cl)c(-c2cc(C(C)(C)O)cc(C3(C)CC3)c2)n1CC1CCCCC1 [29/1] | – | – | –
316 | 6.8 | 6.9 | Cc1c(C(=O)NC2COC2)cc(-c2cc(C(C)(C)C)cc(C(C)(C)C)c2)n1S(=O)(=O)N1CCCCC1 [Example 7, 5-(3,5-Di-tert-butylphenyl)-2-methyl-N-(oxetan-3-yl)-1-(piperidin-1-ylsulfonyl)-1H-pyrrole-3-carboxamide] | – | – | –
251 | 6.5 | 6.5 | Cc1c(C(=O)NCC(C)(C)C(=O)N2CCOCC2)cc(-c2cc(C(C)(C)C)c3c(c2)C2(CCO3)CC2)n1CC1CCCCC1 [Example 11, 5(8-(tert-Butyl)spiro[chroman-4,1′-cyclopropan]-6-yl)-1-(cyclohexylmethyl)-N-(2,2-dimethyl-3-morpholino-3-oxopropyl)-2-methyl-1H-pyrrole-3-carboxamide] | – | – | –
251 | 7.3 | 7.3 | CNC(=O)C(C)(C)CNC(=O)c1cc(-c2cc(C(C)(C)C)c3c(c2)C2(CCO3)CC2)n(CC2CCCCC2)c1C [Example 11/1] | – | – | –
1000 | 6.1 | 6.2 | Cc1c(C(N)=O)cc(-c2cc(C3CC3)cc(C(C)(C)C)c2)n1CC1CCCCC1 [Example 12, 5-(3-(tert-Butyl)-5-cyclopropylphenyl)-1-(cyclohexylmethyl)-2-methyl-1H-pyrrole-3-carboxamide] | – | – | –
398 | 7.4 | 7.5 | CC(C)(C)NS(=O)(=O)c1ccc(-c2cc(C(=O)NC3CCOCC3)c(F)n2CC2CCCCC2)cc1C(C)(C)C [Example 20, 5-(3-(tert-Butyl)-4-(N-(tert-butyl)sulfamoyl)phenyl)-1-(cyclohexylmethyl)-2-fluoro-N-(tetrahydro-2H-pyran-4-yl)-1H-pyrrole-3-carboxamide] | – | – | –
398 | 7.5 | 7.6 | CC(C)(C)NS(=O)(=O)c1ccc(-c2cc(C(=O)NCCC(C)(C)C(=O)O)c(Cl)n2CC2CCCCC2)cc1C(F)(F)F [Example 22, 4-(5-(4-(N-(tert-Butyl)sulfamoyl)-3-(trifluoromethyl)phenyl)-2-chloro-1-(cyclohexylmethyl)-1H-pyrrole-3-carboxamido)-2,2-dimethylbutanoic acid] | – | – | –
3160 | 6.4 | 6.4 | Cc1c(C(=O)NC2CCOCC2)cc(C2=NN(C(=O)NC(C)(C)C)C3(CCCCC3)C2)n1CC1CCCCC1 [Example 24, N-(tert-Butyl)-3-(1-(cyclohexylmethyl)-5-methyl-4-((tetrahydro-2H-pyran-4-yl)carbamoyl)-1H-pyrrol-2-yl)-1,2-diazaspiro[4.5]dec-2-ene-1-carboxamide] | – | – | –
